A short description of series [1]: Selectivity ratio of IC50 for mouse L929 cells to IC50 for human MCF7 cells. The format is toxicity. The following applies: L929 cells versus MCF7 cells, read-out: Ratio IC50.
A further series deals with L929. The series is described as follows: Cytotoxicity against mouse L929 cells by MTT assay. A general note: Tetrazolium assays rely on reduction of a dye to a coloured formazan, in cell work by metabolically active cells.
Another series relates to A549. The series is described as follows: Cytotoxicity against human A549 cells by MTT assay.
The nature of series [2]: Selectivity ratio of IC50 for mouse L929 cells to IC50 for human A549 cells. It is filed as toxicity. The following applies: L929 cells versus A549 cells, read-out: Ratio IC50.
For the next series, the system named is HeLa. The experiment in a line: Cytotoxicity against human HeLa cells by MTT assay. The format is functional, cell-based.
A short description of series [3]: Selectivity ratio of IC50 for mouse L929 cells to IC50 for human HeLa cells. The format is toxicity. The following applies: L929 cells versus HeLa cells, read-out: Ratio IC50.
A further series deals with MCF7. The experiment in a line: Cytotoxicity against human MCF7 cells by MTT assay. The format is functional, cell-based.

Bounds are passed on as bounds.

As usually defined, the IC50 is the concentration at which inhibition is half-maximal. Low values mean higher potency, high ones lower potency. For the molecule `Cn1c[n+](CC(=O)c2ccc([N+](=O)[O-])cc2)c2c1C(=O)c1ccccc1C2=O`, the selectivity ratio was found to be 4.39 in series [1], 14.8 in series [2] and 5.26 in series [3]. In addition, the IC50 with L929 was 53.1 µM; in the series on A549 it was 3.6 µM; in the series with HeLa, 10.1 µM; in the series with MCF7, 12.1 µM.

Take `Cc1cc(C)c(-n2c[n+](CC(=O)c3ccc([N+](=O)[O-])cc3)c3c2C(=O)c2ccccc2C3=O)c(C)c1`: the results for the selectivity ratio in series [1], in series [2] and in series [3] were 1.99, 3.71 and 0.59, respectively. Further, the IC50 was found to be 24.5 µM in the series on L929, 6.6 µM in the series with A549, 41.7 µM in the series with HeLa and 12.3 µM in the series on MCF7.

On to `Cn1c[n+](CC(=O)c2ccc(F)cc2)c2c1C(=O)c1ccccc1C2=O`, for which the selectivity ratio in series [1] was 53.5; in series [2], 12.1; in series [3], 5.87. Also, the IC50 with L929 amounted to 18.2 µM; with A549 it was 1.5 µM; in the series with HeLa, 3.1 µM; in the series on MCF7 it was 0.34 µM.

As for `Cn1c[n+](CC(=O)c2ccc3ccccc3c2)c2c1C(=O)c1ccccc1C2=O`, the selectivity ratio in series [1] came out at 1.81; in series [2], 13.6; in series [3], 3.11. Further, the IC50 in the series on L929 came out at 19 µM; in the series with A549, 1.4 µM; with HeLa, 6.1 µM; with MCF7, 10.5 µM.

`COCCn1c[n+](CC(=O)c2ccc([N+](=O)[O-])cc2)c2c1C(=O)c1ccccc1C2=O`: the selectivity ratio came out at 2.19 in series [1], 14.2 in series [2] and 5.29 in series [3]. For the same molecule, the IC50 in the series with L929 was found to be 41.3 µM; in the series with A549 it was 2.9 µM; with HeLa, 7.8 µM; with MCF7 it was 18.9 µM.

Regarding `Cn1c[n+](CC(=O)c2cccs2)c2c1C(=O)c1ccccc1C2=O`, the selectivity ratio in series [1] amounted to 24.4; in series [2], 76.3; in series [3], 3.27. In addition, the IC50 was found to be 22.9 µM with L929, 0.3 µM in the series with A549, 7 µM in the series on HeLa and 0.94 µM in the series on MCF7.

Turning to `CC(C)c1cccc(C(C)C)c1-n1c[n+](CC(=O)c2ccc([N+](=O)[O-])cc2)c2c1C(=O)c1ccccc1C2=O`, the values for the selectivity ratio in series [1], in series [2] and in series [3] were 0.97, 1.74 and less than 0.47, respectively. Further, the IC50 in the series with L929 is 46.5 µM; with A549, 26.7 µM; in the series on HeLa, greater than 100 µM; in the series on MCF7, 47.9 µM.

Consider `Cn1c[n+](CC(=O)c2ccco2)c2c1C(=O)c1ccccc1C2=O`, for which the values for the selectivity ratio in series [1], in series [2] and in series [3] were 9.71, 136 and 2.78, respectively. The IC50 is 13.6 µM with L929, 0.1 µM with A549, 4.9 µM in the series on HeLa and 1.4 µM in the series with MCF7.

`Cn1c[n+](CC(=O)c2cccc([N+](=O)[O-])c2)c2c1C(=O)c1ccccc1C2=O`: the selectivity ratio in series [1] was found to be 2.86; in series [2], 16.8; in series [3] it was 4.86. The IC50 worked out at 36.9 µM with L929, 2.2 µM in the series on A549, 7.6 µM in the series on HeLa and 12.9 µM in the series on MCF7.

Consider `CC(C)Cn1c[n+](CC(=O)c2ccccc2[N+](=O)[O-])c2c1C(=O)c1ccccc1C2=O`, for which the selectivity ratio in series [1] amounted to 2.4; in series [2], 3.78; in series [3], 1.81. Besides, the IC50 amounted to 133 µM in the series on L929, 35.2 µM in the series on A549, 73.6 µM in the series with HeLa and 55.4 µM in the series on MCF7.

Consider `CC(C)Cn1c[n+](CC(=O)c2ccc([N+](=O)[O-])cc2)c2c1C(=O)c1ccccc1C2=O`, for which the selectivity ratio in series [1] was determined as 2; in series [2], 4.6; in series [3], 1.7. In addition, the IC50 came out at 4.6 µM in the series on L929, 1 µM in the series on A549, 2.7 µM with HeLa and 2.3 µM in the series on MCF7.
